The target in experiment [1] is T1, hCA I (Homo sapiens, UniProt P00915).
T1 construct: made in house
The experiment can be described thus: stopped flow CO2 hydrase assay, hCA I. The settings on record: mean from three different assays. It is filed as biochemical. As for the experimental part: (§1) An Applied Photophysics stopped-flow instrument was used to assay the CA catalysed CO2 hydration activity. […] The CO2 concentrations ranged from 1.7 to 17 mM for the determination of the kinetic parameters and inhibition constants. […] For each inhibitor, at least six traces of the initial 5–10% of the reaction were used to determine the initial velocity. The uncatalyzed rates were determined in the same manner and subtracted from the total observed rates. Stock solutions of the inhibitor (0.1 mM) were prepared in distilled–deionized water and dilutions up to 0.01 nM were done thereafter with the assay buffer. Inhibitor and enzyme solutions were preincubated together for 15 min at room temperature prior to the assay, to allow for the formation of the E–I complex. The inhibition constants were obtained by non-linear least-squares methods using PRISM 3 and the Cheng-Prusoff equation as reported earlier and represent the mean from at least three different determinations. All CA isoforms were recombinant proteins obtained in house, as reported earlier[14]^,[26–29].

For experiment [2], the target named is T2, hCA II (Homo sapiens, UniProt P00918).
T2 construct: made in house
The experiment is described as follows: stopped flow CO2 hydrase assay, hCA II. In kind it is biochemical. The settings on record: mean from three different assays, read-out: Ki hCAII. As for the experimental part:
as §1

Experiment [3] addresses T3, hCA IV (Homo sapiens, UniProt P22748).
T3 construct: made in house
The experiment can be described thus: stopped flow CO2 hydrase assay, hCA IV. It is filed as biochemical. The note with it: mean from three different assays. As for the experimental part: as §1

For experiment [4], the target named is SmCA (Schistosoma mansoni, UniProt A0A3Q0KSG2). The experiment is described as follows: biochemical. Here is the method: (§2) An Applied Photophysics stopped-flow instrument was used to assay the CA catalysed CO2 hydration activity. […] The uncatalyzed rates were determined in the same manner and subtracted from the total observed rates. Stock solutions of the inhibitor (0.1 mM) were prepared in distilled–deionized water and dilutions up to 0.01 nM were done thereafter with the assay buffer. Inhibitor and enzyme solutions were preincubated together for 15 min at room temperature prior to the assay, to allow for the formation of the E–I complex. The inhibition constants were obtained by non-linear least-squares methods using PRISM 3 and the Cheng-Prusoff equation as reported earlier and represent the mean from at least three different determinations. All CA isoforms were recombinant proteins obtained in house, as reported earlier[14]^,[26–29].
Chain of SmCA (A0A3Q0KSG2 entry or part of it): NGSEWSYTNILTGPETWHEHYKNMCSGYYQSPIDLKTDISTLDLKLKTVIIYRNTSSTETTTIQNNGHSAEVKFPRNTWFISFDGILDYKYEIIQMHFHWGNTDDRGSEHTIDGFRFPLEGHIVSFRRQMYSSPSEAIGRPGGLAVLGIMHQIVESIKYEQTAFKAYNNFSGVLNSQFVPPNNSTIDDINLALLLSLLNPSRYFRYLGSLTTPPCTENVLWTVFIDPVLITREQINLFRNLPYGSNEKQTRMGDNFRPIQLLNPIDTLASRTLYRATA

Experiment [5] concerns the target LdCA (Leishmania donovani, UniProt A0A3S5H5R2). The experiment can be described thus: biochemical. As for the experimental part:
as §2

In experiment [6] the target is T4, hCA IX (Homo sapiens, UniProt Q16790).
T4 construct: made in house
The experiment is described as follows: stopped flow CO2 hydrase assay, hCA IX. It is filed as biochemical. The settings on record: mean from three different assays. As for the experimental part: as §1

Experiment [7] addresses TcCA (Trypanosoma cruzi, UniProt Q4DKE0). It is filed as biochemical. The settings on record: stopped flow CO2 hydrase assay; mean from three different assays. As for the experimental part: as §2
[8] abbreviates: stopped flow CO2 hydrase assay, mean from three different assays, read-out: Ki SmCA.
Where [9] appears, read: stopped flow CO2 hydrase assay, mean from three different assays, read-out: Ki LdCA.

Where two headings read alike, the source gives them in different places.

Chain of LdCA (A0A3S5H5R2 entry or part of it): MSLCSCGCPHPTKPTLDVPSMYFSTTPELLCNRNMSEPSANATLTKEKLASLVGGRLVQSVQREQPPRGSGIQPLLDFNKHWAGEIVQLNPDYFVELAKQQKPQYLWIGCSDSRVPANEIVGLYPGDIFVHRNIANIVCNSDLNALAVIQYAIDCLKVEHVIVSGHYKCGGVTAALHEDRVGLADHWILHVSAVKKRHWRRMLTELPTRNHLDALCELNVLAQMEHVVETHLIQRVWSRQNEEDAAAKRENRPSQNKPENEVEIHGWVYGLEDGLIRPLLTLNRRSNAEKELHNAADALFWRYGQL
T1 sequence (P00915 whole entry): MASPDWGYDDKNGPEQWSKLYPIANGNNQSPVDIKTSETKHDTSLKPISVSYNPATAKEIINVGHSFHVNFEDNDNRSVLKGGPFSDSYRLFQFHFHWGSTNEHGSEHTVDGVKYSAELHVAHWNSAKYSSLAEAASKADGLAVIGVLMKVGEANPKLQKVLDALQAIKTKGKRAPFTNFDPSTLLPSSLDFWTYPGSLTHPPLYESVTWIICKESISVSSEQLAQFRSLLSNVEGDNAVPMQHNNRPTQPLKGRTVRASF
T3 sequence (P22748 19-312): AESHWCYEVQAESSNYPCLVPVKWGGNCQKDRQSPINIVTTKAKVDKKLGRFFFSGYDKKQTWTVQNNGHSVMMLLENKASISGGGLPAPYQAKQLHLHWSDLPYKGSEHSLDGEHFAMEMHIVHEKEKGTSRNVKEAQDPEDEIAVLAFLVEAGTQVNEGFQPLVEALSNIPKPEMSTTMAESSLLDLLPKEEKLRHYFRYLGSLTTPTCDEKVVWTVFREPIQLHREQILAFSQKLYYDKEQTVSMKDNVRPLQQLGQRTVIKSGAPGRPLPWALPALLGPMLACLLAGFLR
Chain of TcCA (Q4DKE0 entry or part of it): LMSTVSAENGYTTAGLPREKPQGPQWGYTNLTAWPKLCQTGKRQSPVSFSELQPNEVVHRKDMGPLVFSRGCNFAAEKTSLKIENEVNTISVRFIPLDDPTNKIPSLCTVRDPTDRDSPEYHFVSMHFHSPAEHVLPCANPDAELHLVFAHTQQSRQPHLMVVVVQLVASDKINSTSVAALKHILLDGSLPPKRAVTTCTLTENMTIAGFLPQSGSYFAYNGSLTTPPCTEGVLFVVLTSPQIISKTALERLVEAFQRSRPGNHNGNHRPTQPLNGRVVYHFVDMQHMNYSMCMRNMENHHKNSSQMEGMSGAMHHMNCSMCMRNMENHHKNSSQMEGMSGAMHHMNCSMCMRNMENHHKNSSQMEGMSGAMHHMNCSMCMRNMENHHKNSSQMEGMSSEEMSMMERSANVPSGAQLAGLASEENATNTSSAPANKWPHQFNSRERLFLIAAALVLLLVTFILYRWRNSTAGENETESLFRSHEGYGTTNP

With `NS(=O)(=O)c1ccc(CCNC(=O)Nc2ccc(C(=O)N3CC(=O)N4CCc5ccccc5C4C3)cn2)cc1` (stereo not shown) [Compound 33, 4–(2-(3–(5-(4-Oxo-1,3,4,6,7,11b-hexahydro-2H-pyrazino[2,1-a]isoquinoline-2-carbonyl)pyridin-2-yl)ureido)ethyl)benzenesulfonamide], the Ki amounted to 128 ± 11.9 nM in experiment [1]; 49.2 ± 3.5 nM in experiment [2]; 6810 ± 379 nM in experiment [3]; 581 ± 32.5 nM in experiment [4] (setting [8]); 87.5 ± 4.9 nM in experiment [5] (setting [9]); 90.9 ± 9.6 nM in experiment [6].

As to `NS(=O)(=O)c1ccc(NC(=O)NCc2ccc(C(=O)Nc3nc(CC(=O)N4CC(=O)N5CCc6ccccc6C5C4)cs3)cc2)cc1` (stereo not shown) [Compound 29a, N-(4–(2-oxo-2–(4-oxo-1,3,4,6,7,11b-hexahydro-2H-pyrazino[2,1-a]isoquinolin-2-yl)ethyl)thiazol-2-yl)-4-((3–(4-sulfamoylphenyl)ureido)methyl)benzamide], the Ki is 314 ± 30.5 nM in experiment [1]; 49.6 ± 3.2 nM in experiment [2]; 541 ± 30.3 nM in experiment [3]; 1640 ± 97 nM in experiment [4] (setting [8]); 85.5 ± 6.77 nM in experiment [5] (setting [9]); 31.9 ± 1.9 nM in experiment [6].

In the case of `NS(=O)(=O)c1ccc(C(=O)N2CC(=O)N3CCc4ccccc4C3C2)cc1` (stereo not shown) [Compound 4a, 4–(4-Oxo-1,3,4,6,7,11b-hexahydro-2H-pyrazino[2,1-a]isoquinoline-2-carbonyl) benzenesulfonamide], the Ki was found to be 93.8 ± 8.8 nM in experiment [1]; 44.6 ± 3.4 nM in experiment [2]; 8860 ± 617 nM in experiment [3]; 1890 ± 195 nM in experiment [4] (setting [8]); 371 ± 26.9 nM in experiment [5] (setting [9]); 30.3 ± 3 nM in experiment [6].

As to “4–(3-(4–(4-Oxo-1,3,4,6,7,11b-hexahydro-2H-pyrazino[2,1-a]isoquinoline-2-carbonyl) phenyl)ureido)benzenesulfonamide [Compound 31c]”, the Ki came out at 589 ± 37 nM in experiment [7]; 8700 ± 559 nM in experiment [3]; 62.8 ± 4 nM in experiment [4] (setting [8]); 401 ± 20.7 nM in experiment [5] (setting [9]); 31.1 ± 2.9 nM in experiment [6].

On to “3–(3-(3–(4-Oxo-1,3,4,6,7,11b-hexahydro-2H-pyrazino[2,1-a]isoquinoline-2-carbonyl) phenyl)ureido)benzenesulfonamide [Compound 31b]”, for which the Ki in experiment [7] turned out to be 309 ± 33.4 nM; in experiment [3], 451 ± 24.3 nM; in experiment [4] (setting [8]) it was 2490 ± 144 nM; in experiment [5] (setting [9]) it was 323 ± 16.7 nM; in experiment [6], 31.2 ± 1.6 nM.

`NS(=O)(=O)c1ccc(CNC(=O)Nc2ccc(C(=O)N3CC(=O)N4CCc5ccccc5C4C3)cc2)cc1` (stereo not shown) [Compound 32, 4-((3–(4-(4-Oxo-1,3,4,6,7,11b-hexahydro-2H-pyrazino[2,1-a]isoquinoline-2-carbonyl)phenyl)ureido)methyl)benzenesulfonamide]: the Ki was 80.7 ± 4.8 nM in experiment [1]; 26.5 ± 2.4 nM in experiment [2]; 665 ± 47.3 nM in experiment [3]; 6350 ± 472 nM in experiment [4] (setting [8]); 401 ± 34.8 nM in experiment [5] (setting [9]); 112 ± 11.3 nM in experiment [6].

As for `NS(=O)(=O)c1cccc(NC(=O)N2CC(=O)N3CCc4ccccc4C3C2)c1` (stereo not shown) [Compound 34b, 4-Oxo-N-(3-sulfamoylphenyl)-1,3,4,6,7,11b-hexahydro-2H-pyrazino[2,1-a]isoquinoline-2-carboxamide], the Ki came to 409 ± 23.3 nM in experiment [1]; 45.6 ± 3 nM in experiment [2]; 517 ± 52.4 nM in experiment [3]; 7200 ± 661 nM in experiment [4] (setting [8]); 347 ± 34.3 nM in experiment [5] (setting [9]); 91.9 ± 8.8 nM in experiment [6].

With `NS(=O)(=O)c1cccc(NC(=O)NCc2ccc(C(=O)N3CC(=O)N4CCc5ccccc5C4C3)cc2)c1` (stereo not shown) [Compound 28b, 3–(3-(4–(4-Oxo-1,3,4,6,7,11b-hexahydro-2H-pyrazino[2,1-a]isoquinoline-2-carbonyl)benzyl)ureido)benzenesulfonamide], the Ki in experiment [1] stood at 96.5 ± 6.5 nM; in experiment [2], 14.9 ± 1.5 nM; in experiment [3], 851 ± 56.2 nM; in experiment [4] (setting [8]), 824 ± 66.8 nM; in experiment [5] (setting [9]), 300 ± 30.5 nM; in experiment [6] it was 29.9 ± 1.6 nM.

As for `NS(=O)(=O)c1cccc(NC(=O)NCc2ccc(C(=O)Nc3nc(CC(=O)N4CC(=O)N5CCc6ccccc6C5C4)cs3)cc2)c1` (stereo not shown) [Compound 29b, N-(4–(2-oxo-2–(4-oxo-1,3,4,6,7,11b-hexahydro-2H-pyrazino[2,1-a]isoquinolin-2-yl)ethyl)thiazol-2-yl)-4-((3–(3-sulfamoylphenyl)ureido)methyl)benzamide], the inhibitory constant (Ki) came out at 506 ± 27.9 nM in experiment [1]; 7.1 ± 0.6 nM in experiment [2]; 789 ± 66.2 nM in experiment [3]; 901 ± 77.6 nM in experiment [4] (setting [8]); 218 ± 17.9 nM in experiment [5] (setting [9]); 199 ± 17.6 nM in experiment [6].

Consider `O=C(C1CCCCC1)N1CC(=O)N2CCc3ccccc3C2C1` (stereo not shown) [PZQ, Praziquantel], for which the Ki in experiment [1], in experiment [2], in experiment [3], in experiment [4] (setting [8]), in experiment [5] (setting [9]) and in experiment [6] was above 10000 nM in each case.

Consider `NS(=O)(=O)c1ccc(NC(=S)Nc2ccc([Se]Cc3ccc(C(=O)N4CC(=O)N5CCc6ccccc6C5C4)cc3)cc2)cc1` (stereo not shown) [Compound 9, 4–(3-(4-((4–(4-oxo-1,3,4,6,7,11b-hexahydro-2H-pyrazino[2,1-a]isoquinoline-2-carbonyl)benzyl)selanyl)phenyl)thioureido)benzenesulfonamide], for which the Ki in experiment [1] amounted to 486 ± 24.9 nM; in experiment [2], 131 ± 14 nM; in experiment [3], 966 ± 82.8 nM; in experiment [4], 771 ± 40.1 nM; in experiment [5] it was 276 ± 22.4 nM; in experiment [6], 174 ± 17.2 nM.

Turning to `NS(=O)(=O)c1cccc(NC(=S)N2CC(=O)N3CCc4ccccc4C3C2)c1` (stereo not shown) [Compound 35b, 4-Oxo-N-(3-sulfamoylphenyl)-1,3,4,6,7,11b-hexahydro-2H-pyrazino[2,1-a]isoquinoline-2-carbothioamide], the Ki came to 86.5 ± 9 nM in experiment [1]; 8 ± 0.8 nM in experiment [2]; 47.9 ± 4.1 nM in experiment [3]; 6150 ± 612 nM in experiment [4] (setting [8]); 237 ± 12.5 nM in experiment [5] (setting [9]); 83.3 ± 7.3 nM in experiment [6].

In the case of `NS(=O)(=O)c1ccc(NC(=S)N2CC(=O)N3CCc4ccccc4C3C2)cc1` (stereo not shown) [Compound 35a, 4-Oxo-N-(4-sulfamoylphenyl)-1,3,4,6,7,11b-hexahydro-2H-pyrazino[2,1-a]isoquinoline-2-carbothioamide], the Ki was 303 ± 24.1 nM in experiment [1]; 53.9 ± 4.4 nM in experiment [2]; 7110 ± 404 nM in experiment [3]; 79.4 ± 4.2 nM in experiment [4] (setting [8]); 323 ± 22.2 nM in experiment [5] (setting [9]); 82.2 ± 8.6 nM in experiment [6].

Regarding `NS(=O)(=O)c1ccc(CCNC(=S)N2CC(=O)N3CCc4ccccc4C3C2)cc1` (stereo not shown) [Compound 35c, 4-Oxo-N-(4-sulfamoylphenethyl)-1,3,4,6,7,11b-hexahydro-2H-pyrazino[2,1-a]isoquinoline-2-carbothioamide], the Ki was found to be 64 ± 5.4 nM in experiment [1]; 7.6 ± 0.4 nM in experiment [2]; 8270 ± 719 nM in experiment [3]; 5 ± 0.5 nM in experiment [4] (setting [8]); 485 ± 46 nM in experiment [5] (setting [9]); 97.1 ± 7.9 nM in experiment [6].

With `NS(=O)(=O)c1ccc(C(=O)Nc2nc(CC(=O)N3CC(=O)N4CCc5ccccc5C4C3)cs2)cc1` (stereo not shown) [Compound 30, N-(4–(2-oxo-2–(4-oxo-1,3,4,6,7,11b-hexahydro-2H-pyrazino[2,1-a]isoquinolin-2-yl)ethyl)thiazol-2-yl)-4-sulfamoylbenzamide], the Ki turned out to be 58.6 ± 6.2 nM in experiment [1]; 8.5 ± 0.5 nM in experiment [2]; 422 ± 26.6 nM in experiment [3]; 7.8 ± 0.6 nM in experiment [4] (setting [8]); 81.3 ± 6.4 nM in experiment [5] (setting [9]); 119 ± 12.4 nM in experiment [6].

The values are drawn from PMC9154761, “Development of Praziquantel sulphonamide derivatives as antischistosomal drugs” (Journal of Enzyme Inhibition and Medicinal Chemistry, 2022).
